Columns and labels:
PMA-induced ear swelling = test: PMA-induced mouse ear swelling (topical anti-inflammatory activity); assay type: in vivo, CD-1 (Crl.) derived male mice; settings: topical 3 mg/ear applied 30 min before and 15 min after PMA, measured 6 hours after PMA, >=30% considered significant
Description: A compound can be tested for topical anti-inflammatory activity by measuring the degree of inhibition of edema produced in a mouse ear that has been irritated by the application of a solution of a phorbol ester. [2-(7-Trifluoromethyl-quinolin-4-ylamino)-phenyl]-acetic acid sodium salt was tested for its anti-inflammatory activity as follows: Groups of 6 CD-1 (Crl.) derived male mice weighing 24±2 g were used. Phorbol 12-Myristate 13-Acetate (PMA 4 μg in 20 μl of Acetone) was applied topically to the anterior and posterior surfaces of the right ear to each animal. Vehicle (Ethanol:Acetone/1:1, 20 μl/ear) and [2-(7-Trifluoromethyl-quinolin-4-ylamino)-phenyl]-acetic acid sodium salt at 3 mg/ear were each applied 30 minutes before and 15 minutes after Phorbol 12-Myristate 13-Acetate challenge. Indomethacin (3 mg in 20 μl/ear of acetone:ethanol/1:1) as the positive control was similarly applied at the same timing. Ear swelling was then measured by a Dyer model micrometer gauge at 6 hours after Phorbol 12 Myristate 13-Acetate application as an index of inflammation. Percent inhibition was calculated according to the formula: ([Ic−It]/Ic)×100%, where Ic and It refer to increase of ear thickness (mm) in control and treated mice, respectively. Inhibition of 30 percent or more (≧30%) in ear swelling is considered significant anti-inflammatory activity.
[2-(7-Trifluoromethyl-quinolin-4-ylamino)-phenyl]-acetic acid sodium salt caused significant inhibition (80%) of the PMA-induced ear swelling vs vehicle control. […] When [2-(7-Trifluoromethyl-quinolin-4-ylamino)-phenyl]-acetic acid methyl ester was tested in this assay, the inhibition of ear swelling was not significant (20% inhibition).

COX-1 enzyme = target: T1, COX-1 enzyme (Homo sapiens, UniProt P23219); test: COX-1 inhibition in human platelets (PGE2 formation, EIA); assay type: cell-based
T1 construct: Human platelets are used; endogenous in cells; host or cells: human platelets
Description: Compounds can be tested for their ability to inhibit the COX-1 enzyme by the following procedure: Human platelets are used. Test compound and/or vehicle is incubated with cells (5×10^7/ml) in modified HEPES buffer pH 7.4 for 15 minutes at 37° C. The reaction is initiated by addition of 100 μM arachidonic acid for another 15 minute incubation period and terminated by further addition of 1 N HCl. An aliquot is removed and the amount of PGE 2 formed is determined spectrophotometrically by enzyme immunoassay (“EIA”) kit.
[2-(7-Trifluoromethyl-quinolin-4-ylamino)-phenyl]-acetic acid hydrochloride was screened at 6 concentrations to test for inhibition of the enzyme: 0.1 μM, 0.3 μM, 1 μM, 3 μM, 10 μM and 30 μM. [2-(7-Trifluoromethyl-quinolin-4-ylamino)-phenyl]-acetic acid hydrochloride inhibited the COX-1 enzyme with an IC50 of <0.1 μM in this assay.

[1] = target: T2, Human recombinant Cyclooxygenase-2 (Homo sapiens, UniProt P35354); test: COX-2 inhibition, human recombinant enzyme (PGE2 formation, EIA); assay type: biochemical; settings: human recombinant COX-2 expressed in Sf21 cells; 7 concentrations 0.01-10 μM; 0.3 μM arachidonic acid
T2 construct: purchased Sigma C-0858; host or cells: Sf21 cells
T2 sequence (P35354 18-604): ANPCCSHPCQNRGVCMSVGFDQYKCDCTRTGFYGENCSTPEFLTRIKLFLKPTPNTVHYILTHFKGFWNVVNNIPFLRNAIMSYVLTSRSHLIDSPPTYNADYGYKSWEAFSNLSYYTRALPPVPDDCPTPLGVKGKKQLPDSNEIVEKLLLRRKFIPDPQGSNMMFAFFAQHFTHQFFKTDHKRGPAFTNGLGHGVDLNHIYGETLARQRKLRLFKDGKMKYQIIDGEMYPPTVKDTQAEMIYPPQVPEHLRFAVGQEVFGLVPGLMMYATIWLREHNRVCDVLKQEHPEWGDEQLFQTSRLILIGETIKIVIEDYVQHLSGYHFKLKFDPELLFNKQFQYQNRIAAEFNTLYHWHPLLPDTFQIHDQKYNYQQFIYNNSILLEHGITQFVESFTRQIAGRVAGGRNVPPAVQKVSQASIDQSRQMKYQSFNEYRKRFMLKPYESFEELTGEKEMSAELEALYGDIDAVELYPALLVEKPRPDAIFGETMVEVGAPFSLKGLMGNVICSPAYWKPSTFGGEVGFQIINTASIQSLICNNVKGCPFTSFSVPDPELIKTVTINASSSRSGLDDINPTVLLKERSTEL
Description: Compounds can be tested for their ability to inhibit the COX-2 enzyme by the following procedure: Human recombinant Cyclooxygenase-2 expressed in Sf21 cells (Sigma, C-0858) is used. Test compound and/or vehicle is preincubated with 0.11 U cyclooxygenase-2, 1 mM reduced GSH, 500 μM phenol and 1 μM hematin for 15 minutes at 37° C. in Tris-HCl buffer pH 7.7. The reaction is initiated by addition of 0.3 μM arachidonic acid and terminated after 5 minutes by further addition of 1 N HCl. Following centrifugation, substrate conversion to PGE 2 is measured by an Amersham EIA kit.
[2-(7-Trifluoromethyl-quinolin-4-ylamino)-phenyl]-acetic acid hydrochloride was screened at 7 concentrations to test for inhibition of the enzyme: 0.01 uM, 0.03 μM, 0.1 μM, 0.3 μM, 1 μM, 3 μM and 10 μM.

T1 sequence (P23219 24-599): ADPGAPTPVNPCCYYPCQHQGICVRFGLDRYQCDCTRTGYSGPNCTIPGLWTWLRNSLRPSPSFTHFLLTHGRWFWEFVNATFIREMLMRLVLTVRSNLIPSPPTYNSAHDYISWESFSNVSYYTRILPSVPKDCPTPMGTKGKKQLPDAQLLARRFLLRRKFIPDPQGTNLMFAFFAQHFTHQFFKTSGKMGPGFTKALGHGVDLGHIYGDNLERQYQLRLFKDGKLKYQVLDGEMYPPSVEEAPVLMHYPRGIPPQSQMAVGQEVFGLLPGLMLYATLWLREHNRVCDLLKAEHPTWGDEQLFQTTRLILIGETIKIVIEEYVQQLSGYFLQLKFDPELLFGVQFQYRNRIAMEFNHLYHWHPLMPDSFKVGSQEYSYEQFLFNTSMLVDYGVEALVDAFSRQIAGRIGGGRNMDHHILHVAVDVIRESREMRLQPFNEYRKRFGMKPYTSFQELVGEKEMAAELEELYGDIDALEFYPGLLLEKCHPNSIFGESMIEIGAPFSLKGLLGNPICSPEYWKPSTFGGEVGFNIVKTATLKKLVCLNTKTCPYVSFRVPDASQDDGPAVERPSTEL

Row | SMILES | inhibition of PMA-induced ear swelling vs vehicle control (PMA-induced ear swelling) [%] | melting point [°C] | IC50 (COX-1 enzyme; screened at 6 concentrations 0.1-30 μM, 100 μM arachidonic acid) [nM] | IC50 (COX-1 enzyme; tested separately at 3 concentrations (0.01, 0.03 and 0.1 μM)) [nM] | IC50 [1] [nM]
1 | COc1ccc2c(c1)c(CC(=O)O)c(C)n2C(=O)c1ccc(Cl)cc1 [Indomethacin, reference compound] | 77 | – | – | – | –
2 | COC(=O)Cc1ccccc1Nc1ccnc2cc(C(F)(F)F)ccc12 [[2-(7-Trifluoromethyl-quinolin-4-ylamino)-phenyl]-acetic acid methyl ester] | 20 | – | – | – | –
3 | Cl.O=C(O)Cc1ccccc1Nc1ccnc2cc(Cl)ccc12 | – | 113 to 116 | – | – | –
4 | Cl.O=C(O)Cc1ccccc1Nc1ccnc2cc(C(F)(F)F)ccc12 [[2-(7-Trifluoromethyl-quinolin-4-ylamino)-phenyl]-acetic acid hydrochloride] | 75 | 103 to 104 | < 100 | 81 | 61
5 | O=C([O-])Cc1ccccc1Nc1ccnc2cc(C(F)(F)F)ccc12.[Na+] [[2-(7-Trifluoromethyl-quinolin-4-ylamino)-phenyl]-acetic acid sodium salt] | 80 | – | – | – | –
